Data on one compound can be found in US20240316008A1, “TREATMENT OF SYSTEMIC IMMUNE ACTIVATION SYNDROMES” (TRANQUIS THERAPEUTICS, INC., priority 2020, published 2024).

One may read the inhibition as the percentage by which the read-out fell short of the control.

The test system of assay [1] is neurodegenerative diseases. The note with it: murine models of Parkinson's disease, Alzheimer's disease, ALS; cited from earlier work.
The subject of another assay is TNFα. Put plainly: TNFα release by LPS-stimulated BV2 cells (ELISA). The format is cell-based, murine. Particulars: BV-2 cells, 10 μM, ELISA at 24 hours. How it is done:
First, 100 μl of supernatant was removed from Cell Plate and transferred to a Dilution Plate, which was then centrifuged at 216×g for 10 minutes to remove particulates. The dilution plate was either assayed immediately or aliquots were taken and stored at stored at ≤−20° C.; repeated freeze-thaw cycles were avoided.
Next, a standard curve was prepared by first pipetting 900 ul of Calibrator Diluent RD5K into the 700 pg/mL tube, followed by 200 μl of the appropriate calibrator diluent in the remaining tubes. The stock solution was used to produce a dilution. The resulting tubes were then thoroughly mixed. The Mouse TNFα Standard (700 pg/mL) served as the high standard, and the Calibrator Diluent RD5T served as the zero standard at 0 pg/ml.
Assay Diluent RD1-63 (50 ul) was then added to the center of each well and mixed before and during its use. Then, 50 ul of either standard, control, or sample was added to the center of each well, and covered with adhesive strip. The plate was then mixed for 1 minute and incubated for 2 hours at room temperature.
Each well was then aspirated and washed by filling each well with Wash Buffer (400 ul) five times. After the last wash, the remaining Wash Buffer was removed by aspirating or decanting. TNFα […] conjugate (100 ul) was then added to each well, covered with adhesive strip, incubated for 2 hours at room temperature, and washed and/or aspirated five times.
Substrate solution (100 ul) was then added to each well, incubated in the dark for 30 minutes at room temperature, followed by addition of 100 μl of Stop Solution and mixed. The optical density of each well was determined within 30 minutes by using a microplate reader set to 450 nm.
Plates were read on a Spectrostar Nano machine with built-in MARS data analysis at […].
For TNFα ELISA, the BV-2 cells were very responsive to low concentrations of LPS. A concentration range of 0.1 ng/ml to 1,000 ng/ml was tested. 0.3 ng/ml LPS produced enough TNFα release (8-10 fold above background) from these cells after 22 hours stimulation without saturating the linear range of the ELISA detection system. If higher LPS concentrations are used for stimulating BV-2 cells, a […] is advised to stay within the linear range of the detection system. The current TNFα protocol uses 10,000 cells per well in 96 well plate. A cell count titration can optimize S/B ratio. Miniaturization from 96 well to 384 well is also feasible with this assay.
The TNFα ELISA assay is described in Example 5. The IL-6 assay is described below.
In general terms: ELISA stands for enzyme-linked immunosorbent assay.

The test system of a further assay is PGC-1α. The assay can be described thus: PGC-1α protein expression in BV2 microglia cells (Western blot). The format is cell-based, murine. Particulars: 24 hours. How it is done: Frozen BV2 murine microglia cells were thawed and propagated in complete media (RPMI, 10% heat-inactivated FBS, 1% L-glutamine, 1% Pen-Strep) until the growth rate reached log phase. For protein expression analysis, DMSO (1:1000 final dilution) or TQS-168 in DMSO (1:1000 final dilution) at 20 μM was added to cell cultures. After 24 hours stimulation, supernatant was discarded and cell lysis buffer (Cell Signal) was added to adherent cells to extract protein. Total protein was quantified and normalized across all samples by BCA assays. Two replicates of untreated cultures and three replicates of TQS-168-treated cultures were investigated, with each replicate containing lysates from 5,000,000 BV2 myeloid cells. PGC1α expression was detected by Western Blot using an anti-PGC-1α antibody (SC13067, Santa Cruz Biotechnology, 1:500 dilution). Anti-β-actin antibody (SC8432, Santa Cruz Biotechnology, 1:2000 dilution) was used to quantify beta-actin, a housekeeping gene whose expression level is not know to be affected by TQS-168. […] Total protein was quantified and normalized across all samples by BCA assays. PGC-1α was subsequently detected by Western Blot using an anti-PGC-1α antibody (SC13067, Santa Cruz Biotechnology, 1:500 dilution). β-actin was detected with an anti-β-actin antibody (SC8432, Santa Cruz Biotechnology, 1:2000 dilution). […]
Background: A western blot detects proteins with antibodies after separation by electrophoresis.

SMILES strings stand for the structures.

As for `CC(C)(C)c1ccc(-c2nc3ccccc3[nH]2)cc1` [TQS-168, 2-(4-tert-butylphenyl)-1H-benzimidazole], in assay [1], the disease severity entry is “reduce” and the myeloid-mediated inflammation entry is on record as “suppress”. In addition, the “suppression of TNFα production” value in the assay with TNFα (0.3 ng/ml LPS) is reported as “about 25%”. In addition, the inhibition at 10 µM with TNFα (Mus musculus, 1 ng/ml LPS, read-out: inhibition of TNFα production) is about 35%. The PGC-1α protein expression result in the assay on PGC-1α (BV2 cells, concentrations ranging from 0.7 μM to 20 μM) is listed as “induces”. Also, the PGC-1α protein expression entry in the assay with PGC-1α (BV2 microglia cells, 20 μM, Western blot) is “induces”.
